# Experimental data from paper PMC4745082, “A Novel PET Imaging Probe for the Detection and Monitoring of Translocator Protein 18 kDa Expression in Pathological Disorders” (Scientific Reports, 2016).
# Entries after “also recorded” stand apart in the source; their conditions may differ.
# Legend:
# [1] = biological target: TSPO (Rattus norvegicus, UniProt P16257); test: microPET in LPS-induced neuroinflammation rat model; assay type: in vivo; design: from tissue; host or cells: Living rat brain (ipsilateral and contralateral striatum), LPS-injected Sprague-Dawley rats
# TSPO, sequence (P16257 whole entry): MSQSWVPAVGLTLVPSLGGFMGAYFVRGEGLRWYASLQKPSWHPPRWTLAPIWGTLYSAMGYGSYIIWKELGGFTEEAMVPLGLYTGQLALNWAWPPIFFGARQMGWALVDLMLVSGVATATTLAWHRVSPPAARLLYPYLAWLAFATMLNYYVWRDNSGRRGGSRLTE
# Method: Male Sprague-Dawley rats weighing 200–250 g were used for the brain inflammation model and neuroinflammation was induced using lipopolysaccharide (LPS; Sigma-Aldrich, St. Louis, MO, U.S.A.) as previously described. In all rats used for sequential PET scans, microglia activation between the ipsilateral and contralateral areas was determined by CD68 immunohistochemical staining.
# Five LPS-induced neuroinflammation rats (219.2 ± 14.1 g) were used for brain PET imaging at 4 days post-LPS injection. Before the scan, the rats were anesthetized with 2% isoflurane in a 7:3 mixture of N2/O2. PET imaging of the rat brain was performed in a dedicated small animal PET/CT (NanoPET/CT, Bioscan, Inc., U.S.A.) with a 10-cm axial field-of-view (FOV) and a 12-cm transaxial FOV. […] To determine the TSPO selectivity and TSPO specificity of the PET images, flumazenil (5 mg/kg intravenously) was administered at 15 min post [^18F]CB251 injection via jugular catheter. Subsequently, PBR28 (5 mg/kg intravenously) was injected 30 min later via jugular catheter in the same LPS-induced neuroinflammation rat model. Three human glioblastoma U87-MG-bearing mice were used for TSPO-rich cancer PET imaging. PET scans of the mice, anesthetized with 2% isoflurane, were performed with a 9.3-cm axial, 8.4-cm trans-axial FOV scanner. At the end of each study, the list-mode data were sorted into a dynamic scan consisting of 54 frames for 90 min. The acquired images were reconstructed by the 3-D Adjoints Monte Carlo method, which included scatter and random corrections. A region of interest (ROI) with a 2-mm radius was delineated in the ipsilateral lesioned striatum by the intensely visualized region in the summed image of all the frames. Regional uptake of radioactivity was decay-corrected to the injection time and was expressed as the standardized uptake value (SUV), which was normalized to the injected radioactivity and animal body weight. Analysis of the PET images was performed using PMOD software v.3.1 (PMOD Technologies Ltd., Zurich, Switzerland). The time activity curve (TAC) representing the variation in radioligand concentration according to the time-course was estimated for the ipsilateral striatum.
# [2] = tested on: human glioblastoma U87-MG xenografts; design: species or system mice; conditions: mouse, in vivo
# Method: Another in vivo test of [^18F]CB251 was performed in U87-MG-bearing mice using a microPET scanner (Fig. 6). Tumour cells were engrafted on the left thigh of Balb/c nude mice. [^18F]CB251 was administered intravenously after the tumour volume reached approximately 364.5 ± 32.2 mm^3 and a dynamic PET scan was performed. […] In particular, [^18F]CB251 provided a tumour accumulation (1.96 ± 0.11%ID/g at 1 h post injection) and a visible image of the tumour in summed PET images.
# U87-MG cells (ATCC) were cultured in Dulbecco’s modified Eagle’s medium supplemented with 4 mM L-glutamine, 4,500 mg/L glucose, 1 mM sodium pyruvate, […] sodium bicarbonate, 10% FBS and antibiotic-antimycotic (Gibco, Grand Island, NY, USA) at 37 °C in a humidified atmosphere of 5% CO2. U87-MG cells were cultured for 2–3 days without changing the medium and were harvested with trypsin-EDTA in PBS. Male Balb/c nu/nu mice, obtained at 6–7 weeks of age (Orient Bio Inc., Seongnam, Korea), were subcutaneously injected in the right shoulder with 5 × 10^6 U87-MG cells suspended in 100 μL of 100 mM PBS (pH 7.4). Animal protocols were approved by the Seoul National University Bundang Hospital Animal Care and Use Committee and the methods were carried out in accordance with the approved guidelines. We also performed calliper measurements of the longest perpendicular tumour diameters.
# Five LPS-induced neuroinflammation rats (219.2 ± 14.1 g) were used for brain PET imaging at 4 days post-LPS injection. Before the scan, the rats were anesthetized with 2% isoflurane in a 7:3 mixture of N2/O2. PET imaging of the rat brain was performed in a dedicated small animal PET/CT (NanoPET/CT, Bioscan, Inc., U.S.A.) with a 10-cm axial field-of-view (FOV) and a 12-cm transaxial FOV. […] Regional uptake of radioactivity was decay-corrected to the injection time and was expressed as the standardized uptake value (SUV), which was normalized to the injected radioactivity and animal body weight. […]
# [3] = assay type: in vitro ADME; conditions: 2 h
# Method: The in vitro stability of [^18F]CB251 was assayed by monitoring both the radio-TLC and the radio-HPLC profiles to determine its radiochemical purity. To assess the in vitro serum stability, 100 μL of [^18F]CB251 in 10% EtOH/saline was incubated with 0.5 mL of human serum from a healthy volunteer for 2 h at 37 °C and the solution was analysed at 0, 10, 30, 60 and 120 min by a radio-TLC scanner using MeOH-CH2Cl2 (5:95) as the developing solvent. Separately, 100 μL of [^18F]CB251 in 10% EtOH/saline was also incubated with 0.9 mL of human serum from a healthy volunteer for 2 h at 37 °C. Aliquots (200 μL) were taken from the sample at time points of 0, 30, 60 and 120 min and mixed with absolute acetonitrile (200 μL). The mixture was centrifuged (3500 rpm, 5 min) to precipitate out serum proteins. The resulting supernatant including the authentic CB251 (1.0 mg/2.0 mL of CH3CN, 20 μL) was filtered through a 0.45 μm GH Polypro (GHP) membrane Disc filter before HPLC analysis to determine the fraction of intact radiotracer. Samples were analysed by HPLC (Waters, Xterra RP-18, 5 μm, 4.6 × 250 mm; eluant: 60% CH3CN/H2O; flow rate: 1 mL/min; guard column 10 × 10 mm).
compound,measurement,setting,value
"CCCN(CCC)C(=O)Cc1c(-c2ccc(OCC[18F])cc2)nc2c(Cl)cc(Cl)cn12 [[^18F]CB251, 2-(2-(4-(2-[^18F]fluoroethoxy)phenyl)-6,8-dichloroimidazo[1,2-a]pyridin-3-yl)-N,N-dipropylacetamide]",uptake ratio between the ipsilateral area and the contralateral area,[1]; 30 min post injection,2.35 times
same,uptake of [18F]CB251 in the ipsilateral area after PBR28 injection,"[1]; displacement, PBR28 5 mg/kg intravenously 30 min after flumazenil",decreased significantly; also recorded: significantly decreased
same,uptake of [18F]CB251 in the ipsilateral region after flumazenil,"[1]; displacement, flumazenil 5 mg/kg intravenously at 15 min post injection",did not prevent the uptake
same,binding potential of the specifically bound radioligand relative to the non-displaceable radioligand in tissue (BPND),"[1]; ipsilateral striatum, contralateral striatum as reference, Logan plot with reference tissue input",1.83 ± 0.18
same,uptake in the skull,[1]; summed microPET images,no significant uptake
same,tumour uptake,"[2]; male, Balb/c nu/nu, 1 h",1.96 ± 0.11 %ID/g
same,bladder and muscle uptake,[2],low
same,kidney uptake,[2],high
same,radioactive parent remaining in human serum,[3],greater than 99%
